{
  "source": "paper PMC12116161",
  "about": "“An Elastase Inhibitor ShSPI from Centipede Attenuates Bleomycin-Induced Pulmonary Fibrosis” (Toxins, 2025)",
  "tested_on": "MCP-1, IL-6, IL-1β, IFN-γ, IL-10, TGF-β mRNA in lung tissue",
  "assay": "RT-qPCR of inflammatory factor mRNA in lung tissue of IPF mice",
  "type": "in vivo, ICR mice",
  "details": "pirfenidone 200 mg/kg oral gavage once daily for 7 days, BLM-induced IPF mice",
  "procedure": "Animal Model Preparation: The peptide powder was dissolved in pre-cooled saline and filtered to remove bacteria, then a spray needle was attached to a micro-syringe to aspirate the peptide solution. A total of 56 ICR mice were anesthetized by intramuscular injection of avertin. After anesthesia, the mice were fixed supine, the tongue was gently pulled, the vocal folds were exposed with a laryngoscope, the trachea was gently inserted, and the nebulized solution was rapidly pushed and injected. Each mouse was administered 100 μL of a 0.4 mg/mL bleomycin solution via tracheal spray, with the treatment performed once. Seven days after modeling, the mice were randomly grouped for ShSPI treatment based on weight loss scores. An additional 8 mice received the vehicle (normal saline) and were designated as the sham group.\nA total of 48 suitable mice were randomly divided into five groups: the model control group (MC), the positive control group (PC), and the ShSPI low-dose groups (1 mg/kg), medium-dose groups (2 mg/kg), and high-dose groups (4 mg/kg).\nDrug Administration: Starting on day 7 post-modeling, ShSPI peptide treatment groups were anesthetized with intramuscular avertin and received tracheal spray administration of the peptide. The low-dose group was treated with 1 mg/kg ShSPI peptide, the medium-dose group with 2 mg/kg, and the high-dose group with 4 mg/kg. The positive control group, without anesthesia, received 200 mg/kg pirfenidone (IPFD) via oral gavage. All groups were treated once daily for seven consecutive days.\nThe left lobe of the lung was collected from each mouse for total RNA extraction using RNAiso Plus, following the manufacturer’s instructions. The extracted RNA was quantified using a UV spectrophotometer. One microgram of total RNA was reverse transcribed into cDNA using a first-strand cDNA synthesis kit, following the provided protocol. Quantitative PCR (qPCR) was performed on a QuantStudio system using 2× SYBR Green qPCR Master Mix, and β-actin served as the internal control. The PCR reaction utilized a two-step protocol: 95 °C for 15 s, followed by 60 °C for 60 s, repeated for 40 cycles. Gene expression levels were calculated using the 2^−ΔΔCt method.",
  "data": [
    {"compound": "Cc1ccc(=O)n(-c2ccccc2)c1", "note": "[pirfenidone, reference compound]", "values": [
      {"measurement": "mRNA content of pro-inflammatory cytokines (MCP-1, IL-6, IL-1β, IFN-γ) in lung tissue", "value": "reduction"}
    ]}
  ]
}
